Non-standard residues stand in square brackets, D forms with d. Residues, ends and D or L forms follow the SMILES beside them.
Key:
[1] = molecular target: SARS-CoV-1 HR1 (Severe acute respiratory syndrome coronavirus, UniProt P59594); experiment: biochemical; type: binding
[2] = system: Vero hACE2 cells
[3] = molecular target: SARS-CoV-2 HR1 (Severe acute respiratory syndrome coronavirus 2, UniProt P0DTC2); experiment: biochemical; type: binding
[4] = system: SARS-CoV-2 (nCoV/USA_WA1/2020)
[5] = system: HEK293T cells
[6] = system: SARS-CoV-2; conditions: 1 h
[7] = system: human red blood cells
[8] = system: Vero A2T2 cell line
[9] = molecular target: SARS-CoV-1 spike heptad repeat 1 peptide, biotinylated (SARS-CoV-1); experiment: BLI

CC[C@@H](C)[C@@H](NC(=O)[C@H]1CCCN1C(=O)[C@H]1CCCN1C(=O)[C@H](NC(=O)[C@@H](Cc1c[nH]c2ccccc12)NC(=O)[C@@H](CCCCN)NC(=O)[C@@H](CC(C)C)NC(=O)[C@H](NC(=O)[C@@H](CCCCN)NC(=O)CNC(=O)[C@H](NC(=O)[C@@H](CCCCN)NC(=O)[C@@H](CCCCN)NC(=O)[C@@H](CC(C)C)NC(=O)[C@@H](CCCNC(=N)N)NC(=O)[C@@H](CCCCN)NC(=O)[C@@H](CCCNC(=N)N)NC(=O)[C@H](NC(=O)[C@@H](CCCCN)NC(=O)[C@@H](CCCCN)NC(=O)[C@@H](CCCNC(=N)N)NC(=O)[C@@H](CC(C)C)NC(=O)[C@@H](CCCNC(=N)N)NC(=O)[C@@H](CCCNC(=N)N)NC(=O)[C@@H](Cc1ccccc1)NC(=O)[C@@H](CCCNC(=N)N)NC(=O)CNC(=O)[C@H](N)C(C)C)[C@H](C)O)[C@H](C)CC)C(C)C)[C@H](C)CC)C(=O)N[C@@H](C(=O)NCC(=O)N[C@H](CO)C(=O)N[C@@H](C(=O)N1CCC[C@@H]1C(=O)N[C@H](CC(C)C)C(=O)NCC(=O)N[C@H](CO)C(=O)NCC(=O)O)[C@H](C)CC)C(C)C [D-Yongshi] (H-[dV]G[dR][dF][dR][dR][dL][dR][dK][dK][dT][dR][dK][dR][dL][dK][dK][dI]G[dK][dV][dL][dK][dW][dI][dP][dP][dI][dV]G[dS][dI][dP][dL]G[dS]G-OH; N-terminus and C-terminus assumed)
Kd [1]: > 100 µM | cytotoxicity compared with parent or control peptide (in words) [2]: greatly increased cytotoxicity | Kd [3]: > 100 µM | SARS-CoV-2 inhibition by D-enantiomer (in words) [4]: only observed at concentrations that also induced substantial cell death

CC[C@H](C)[C@H](NC(=O)[C@H](CCCCN)NC(=O)[C@H](CCC(=O)O)NC(=O)[C@H](CCCCN)NC(=O)[C@H](CO)NC(=O)[C@H](CCCCN)NC(=O)[C@H](CCCNC(=N)N)NC(=O)[C@H](Cc1ccccc1)NC(=O)[C@H](Cc1ccccc1)NC(=O)[C@H](CC(=O)O)NC(=O)CNC(=O)[C@H](CC(C)C)NC(=O)[C@@H](N)CC(C)C)C(=O)NCC(=O)N[C@@H](CCCCN)C(=O)N[C@@H](CCC(=O)O)C(=O)N[C@@H](Cc1ccccc1)C(=O)N[C@@H](CCCCN)C(=O)N[C@@H](CCCNC(=N)N)C(=O)N[C@H](C(=O)N[C@H](C(=O)N[C@@H](CCC(N)=O)C(=O)N[C@@H](CCCNC(=N)N)C(=O)N[C@H](C(=O)N[C@@H](CCCCN)C(=O)N[C@@H](CC(=O)O)C(=O)N[C@@H](Cc1ccccc1)C(=O)N[C@@H](CC(C)C)C(=O)N[C@@H](CCCNC(=N)N)C(=O)N[C@@H](CC(N)=O)C(=O)N[C@@H](CC(C)C)C(=O)N[C@H](C(=O)N1CCC[C@H]1C(=O)N[C@@H](CCCNC(=N)N)C(=O)N[C@H](C(=O)N[C@@H](CCC(=O)O)C(=O)N[C@@H](CO)C(=O)O)[C@@H](C)O)C(C)C)[C@@H](C)CC)C(C)C)[C@@H](C)CC [LL-37, reference compound]
HEK293T TD50 [5]: 26.61 µM | SARS-CoV-2 inhibition at 50 µM [6]: > 50% | Vero TD50 48 h [2]: 39.44 µM | hemolytic activity (in words) [7]: considerable hemolytic activity

CC[C@H](C)[C@H](NC(=O)[C@@H](NC(=O)[C@@H](N)CO)[C@@H](C)CC)C(=O)N[C@@H](CC(N)=O)C(=O)N[C@@H](Cc1ccccc1)C(=O)N[C@@H](CCC(=O)O)C(=O)N[C@@H](CCCCN)C(=O)N[C@@H](CC(C)C)C(=O)O [OVA, reference compound]
HEK293T TD50 [5]: > 50 µM | Vero TD50 24 h [8]: > 400 µM | Vero TD50 48 h [2]: > 50 µM

CC[C@H](C)[C@H](NC(=O)[C@H](CCCCN)NC(=O)[C@H](CCCCN)NC(=O)[C@H](CC(C)C)NC(=O)[C@H](CCCNC(=N)N)NC(=O)[C@H](CCCCN)NC(=O)[C@H](CCCNC(=N)N)NC(=O)[C@@H](NC(=O)[C@H](CCCCN)NC(=O)[C@H](CCCCN)NC(=O)[C@H](CCCNC(=N)N)NC(=O)[C@H](CC(C)C)NC(=O)[C@H](CCCNC(=N)N)NC(=O)[C@H](CCCNC(=N)N)NC(=O)[C@H](Cc1ccccc1)NC(=O)[C@H](CCCNC(=N)N)NC(=O)CNC(=O)[C@@H](N)C(C)C)[C@@H](C)O)C(=O)NCC(=O)N[C@@H](CCCCN)C(=O)N[C@H](C(=O)N[C@@H](CC(C)C)C(=O)N[C@@H](CCCCN)C(=O)N[C@@H](Cc1c[nH]c2ccccc12)C(=O)N[C@H](C(=O)N1CCC[C@H]1C(=O)N1CCC[C@H]1C(=O)N[C@H](C(=O)N[C@H](C(=O)NCC(=O)N[C@@H](CO)C(=O)N[C@H](C(=O)N1CCC[C@H]1C(=O)N[C@@H](CC(C)C)C(=O)NCC(=O)N[C@@H](CS)C(=O)NCC(=O)O)[C@@H](C)CC)C(C)C)[C@@H](C)CC)[C@@H](C)CC)C(C)C [PMAP-36R] (H-VGRFRRLRKKTRKRLKKIGKVLKWIPPIVGSIPLGCG-OH)
HEK293T TD50 [5]: 24.61 µM | SARS-CoV-2 inhibition at 50 µM [6]: > 50% | Vero TD50 48 h [2]: 23.47 µM | hemolytic activity (in words) [7]: considerable hemolytic activity

CC[C@H](C)[C@H](NC(=O)[C@@H]1CCCN1C(=O)[C@@H]1CCCN1C(=O)[C@@H](NC(=O)[C@H](Cc1c[nH]c2ccccc12)NC(=O)[C@H](CCCCN)NC(=O)[C@H](CC(C)C)NC(=O)[C@@H](NC(=O)[C@H](CCCCN)NC(=O)CNC(=O)[C@@H](NC(=O)[C@H](CCCCN)NC(=O)[C@H](CCCCN)NC(=O)[C@H](CC(C)C)NC(=O)[C@H](CCCNC(=N)N)NC(=O)[C@H](CCCCN)NC(=O)[C@H](CCCNC(=N)N)NC(=O)[C@@H](NC(=O)[C@H](CCCCN)NC(=O)[C@H](CCCCN)NC(=O)[C@H](CCCNC(=N)N)NC(=O)[C@H](CC(C)C)NC(=O)[C@H](CCCNC(=N)N)NC(=O)[C@H](CCCNC(=N)N)NC(=O)[C@H](Cc1ccccc1)NC(=O)[C@H](CCCNC(=N)N)NC(=O)CNC(=O)[C@@H](N)C(C)C)[C@@H](C)O)[C@@H](C)CC)C(C)C)[C@@H](C)CC)C(=O)O [p9C] (H-VGRFRRLRKKTRKRLKKIGKVLKWIPPI-OH)
anti-SARS-CoV-2 activity relative to PMAP-36R (in words) [4]: none

CC[C@H](C)[C@H](NC(=O)[C@H](CCCCN)NC(=O)[C@H](CCCCN)NC(=O)[C@@H](N)CC(C)C)C(=O)NCC(=O)N[C@@H](CCCCN)C(=O)N[C@H](C(=O)N[C@@H](CC(C)C)C(=O)N[C@@H](CCCCN)C(=O)N[C@@H](Cc1c[nH]c2ccccc12)C(=O)N[C@H](C(=O)N1CCC[C@H]1C(=O)N1CCC[C@H]1C(=O)N[C@H](C(=O)N[C@H](C(=O)NCC(=O)N[C@@H](CO)C(=O)N[C@H](C(=O)N1CCC[C@H]1C(=O)N[C@@H](CC(C)C)C(=O)NCC(=O)N[C@@H](CS)C(=O)NCC(=O)O)[C@@H](C)CC)C(C)C)[C@@H](C)CC)[C@@H](C)CC)C(C)C [p14N] (H-LKKIGKVLKWIPPIVGSIPLGCG-OH)
anti-SARS-CoV-2 activity relative to PMAP-36R (in words) [4]: no inhibition

SARS-CoV-2 spike heptad repeat 2 peptide
Kd [9]: 59.5 µM
